Measurements reported in patent US20220135591A1, “HETEROCYCLIC COMPOUNDS AS INHIBITORS OF MONOACYLGLYCEROL LIPASE (MAGL)” (Hoffmann-La Roche Inc., priority 2019, published 2022).

Biological target: T1, MAGL (recombinant wild-type) (Homo sapiens, UniProt Q99685)
T1 sequence (Q99685 1-303): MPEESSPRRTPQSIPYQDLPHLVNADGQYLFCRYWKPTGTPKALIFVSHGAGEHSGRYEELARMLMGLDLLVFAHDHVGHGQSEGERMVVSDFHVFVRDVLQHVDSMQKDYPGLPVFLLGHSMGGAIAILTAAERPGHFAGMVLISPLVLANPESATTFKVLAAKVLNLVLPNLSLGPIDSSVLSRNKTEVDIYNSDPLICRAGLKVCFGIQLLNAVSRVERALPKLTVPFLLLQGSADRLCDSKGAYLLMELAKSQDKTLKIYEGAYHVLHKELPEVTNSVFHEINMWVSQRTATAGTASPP
Assay: 4-NPA assay: MAGL inhibitory activity by hydrolysis of 4-nitrophenylacetate, absorbance at 405 nm
Format: biochemical
Details: 4-NPA assay (values without footnote [b])
Procedure, shortened: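 Final assay: 1 nM MAGL and 300 μM 4-nitrophenylacetate in 50 mM Tris, 1 mM EDTA, at RT. Compounds (25 μM–1.7 nM, 3-fold steps) were preincubated 15 min with enzyme. A405 was read 5 min after substrate addition and again after 80 min; activity was taken as the difference between reads.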

Row | SMILES | IC50 [nM]
1 | Cc1ccc2oc(N3CCN(C(=O)c4ccc(N5CC6(CCC6(F)F)C5)cc4)CC3)nc2n1 [Example 206, (4-(5,5-difluoro-2-azaspiro[3.3]heptan-2-yl)phenyl)(4-(5-methyloxazolo[4,5-b]pyridin-2-yl)piperazin-1-yl)methanone] | 61
2 | CC(OC1CN(c2ccc(C(=O)N3CCN(c4nc5nc(Cl)ccc5o4)CC3)cc2)C1)C(F)(F)F (stereo not shown) [Example 208, (4-(5-chlorooxazolo[4,5-b]pyridin-2-yl)piperazin-1-yl)(4-(3-((1,1,1-trifluoropropan-2-yl)oxy)azetidin-1-yl)phenyl)methanone] | 16
3 | CCC(C)(C)OC1CN(c2ccc(C(=O)N3CCN(c4nc5nc(C)ccc5o4)CC3)cn2)C1 [Example 215, (4-(5-methyloxazolo[4,5-b]pyridin-2-yl)piperazin-1-yl)(6-(3-(tert-pentyloxy)azetidin-1-yl)pyridin-3-yl)methanone] | 70
4 | Cc1ccc2oc(N3CCN(C(=O)c4cnc(N5CC(OC(C)C(F)(F)F)C5)c(C)c4)CC3)nc2n1 (stereo not shown) [Example 216, (5-methyl-6-(3-((1,1,1-trifluoropropan-2-yl)oxy)azetidin-1-yl)pyridin-3-yl)(4-(5-methyloxazolo[4,5-b]pyridin-2-yl)piperazin-1-yl)methanone] | 113
5 | Cc1ccc2oc(N3CCN(C(=O)c4cnc(N5CC(OC(C)C(F)(F)F)C5)c(F)c4Cl)CC3)nc2n1 (stereo not shown) [Example 217, (4-chloro-5-fluoro-6-(3-((1,1,1-trifluoropropan-2-yl)oxy)azetidin-1-yl)pyridin-3-yl)(4-(5-methyloxazolo[4,5-b]pyridin-2-yl)piperazin-1-yl)methanone] | 167
6 | Cc1ccc2oc(N3CCN(C(=O)c4cnc(N5CC(OC(C)C(F)(F)F)C5)nc4)CC3)nc2n1 (stereo not shown) [Example 219, (4-(5-methyloxazolo[4,5-b]pyridin-2-yl)piperazin-1-yl)(2-(3-((1,1,1-trifluoropropan-2-yl)oxy)azetidin-1-yl)pyrimidin-5-yl)methanone] | 220
7 | Cc1ccc2oc(N3CCN(C(=O)c4cnc(N5CCC6(C5)CC6(F)F)nc4)CC3)nc2n1 (stereo not shown) [Example 222, (2-(1,1-difluoro-5-azaspiro[2.4]heptan-5-yl)pyrimidin-5-yl)(4-(5-methyloxazolo[4,5-b]pyridin-2-yl)piperazin-1-yl)methanone] | 794
8 | Cc1ccc2oc(N3CCN(C(=O)c4cnc(N5CC(OC(C)C(F)(F)F)C5)c(F)c4)CC3)nc2n1 (stereo not shown) [Example 224, (5-fluoro-6-(3-((1,1,1-trifluoropropan-2-yl)oxy)azetidin-1-yl)pyridin-3-yl)(4-(5-methyloxazolo[4,5-b]pyridin-2-yl)piperazin-1-yl)methanone] | 90
9 | Cc1ccc2oc(N3CCN(C(=O)c4cnc(N5CC(OC(C)C(F)(F)F)C5)c(Cl)c4)CC3)nc2n1 (stereo not shown) [Example 226, (5-chloro-6-(3-((1,1,1-trifluoropropan-2-yl)oxy)azetidin-1-yl)pyridin-3-yl)(4-(5-methyloxazolo[4,5-b]pyridin-2-yl)piperazin-1-yl)methanone] | 38
10 | Cc1ccc2oc(N3CCN(C(=O)c4cnc(N5CCC6(C5)CC6(F)F)c(Cl)c4)CC3)nc2n1 (stereo not shown) [Example 227, (5-chloro-6-(1,1-difluoro-5-azaspiro[2.4]heptan-5-yl)pyridin-3-yl)(4-(5-methyloxazolo[4,5-b]pyridin-2-yl)piperazin-1-yl)methanone] | 62

Continued by falling IC50, values first:

Row | IC50 [nM] | SMILES
11 | 13100 | Cc1ccc2oc(N3CCN(C(=O)c4cnc(N5CC6(CCC6(F)F)C5)cc4C)CC3)nc2n1 [Example 221, (6-(5,5-difluoro-2-azaspiro[3.3]heptan-2-yl)-4-methylpyridin-3-yl)(4-(5-methyloxazolo[4,5-b]pyridin-2-yl)piperazin-1-yl)methanone]
12 | 4460 | Cc1ccc2oc(N3CCN(C(=O)c4cnc(N5CCC6(C5)CC6(F)F)cc4C)CC3)nc2n1 (stereo not shown) [Example 223, (6-(1,1-difluoro-5-azaspiro[2.4]heptan-5-yl)-4-methylpyridin-3-yl)(4-(5-methyloxazolo[4,5-b]pyridin-2-yl)piperazin-1-yl)methanone]
13 | 4000 | Cc1ccc2oc(N3CCN(C(=O)c4cnc(N5CC(OC(C)C(F)(F)F)C5)cc4C)CC3)nc2n1 (stereo not shown) [Example 220, (4-methyl-6-(3-((1,1,1-trifluoropropan-2-yl)oxy)azetidin-1-yl)pyridin-3-yl)(4-(5-methyloxazolo[4,5-b]pyridin-2-yl)piperazin-1-yl)methanone]
14 | 1540 | Cc1ccc2oc(N3CCN(C(=O)c4ccc(N5CC(OC(C)C(F)(F)F)C5)nn4)CC3)nc2n1 (stereo not shown) [Example 218, (4-(5-methyloxazolo[4,5-b]pyridin-2-yl)piperazin-1-yl)(6-(3-((1,1,1-trifluoropropan-2-yl)oxy)azetidin-1-yl)pyridazin-3-yl)methanone]
15 | 1130 | Cc1ccc2oc(N3CCN(C(=O)c4c(F)cc(N5CC(OC(C)C(F)(F)F)C5)cc4F)CC3)nc2n1 (stereo not shown) [Example 212, (2,6-difluoro-4-(3-((1,1,1-trifluoropropan-2-yl)oxy)azetidin-1-yl)phenyl)(4-(5-methyloxazolo[4,5-b]pyridin-2-yl)piperazin-1-yl)methanone]
16 | 346 | Cc1ccc2oc(N3CCN(C(=O)c4ccc(N5CC(OC(C)C(F)(F)F)C5)cc4C)CC3)nc2n1 (stereo not shown) [Example 211, (2-methyl-4-(3-((1,1,1-trifluoropropan-2-yl)oxy)azetidin-1-yl)phenyl)(4-(5-methyloxazolo[4,5-b]pyridin-2-yl)piperazin-1-yl)methanone]
17 | 244 | Cc1ccc2oc(N3CCN(C(=O)c4cnc(N5CCC6(C5)CC6(F)F)c(C)c4)CC3)nc2n1 (stereo not shown) [Example 225, (6-(1,1-difluoro-5-azaspiro[2.4]heptan-5-yl)-5-methylpyridin-3-yl)(4-(5-methyloxazolo[4,5-b]pyridin-2-yl)piperazin-1-yl)methanone]
18 | 235 | CCOC1(C)CN(c2ccc(C(=O)N3CCN(c4nc5nc(Cl)ccc5o4)CC3)cc2)C1 [Example 209, (4-(5-chlorooxazolo[4,5-b]pyridin-2-yl)piperazin-1-yl)(4-(3-ethoxy-3-methylazetidin-1-yl)phenyl)methanone]
19 | 170 | Cc1ccc2oc(N3CCN(C(=O)c4ccc(N5CC(OC(C)C(F)(F)F)C5)nc4)CC3)nc2n1 (stereo not shown) [Example 214, (4-(5-methyloxazolo[4,5-b]pyridin-2-yl)piperazin-1-yl)(6-(3-((1,1,1-trifluoropropan-2-yl)oxy)azetidin-1-yl)pyridin-3-yl)methanone]
20 | 99 | Cc1ccc2oc(N3CCN(C(=O)c4ccc(N5CC(OC(C)C(F)(F)F)C5)cc4Cl)CC3)nc2n1 (stereo not shown) [Example 213, (2-chloro-4-(3-((1,1,1-trifluoropropan-2-yl)oxy)azetidin-1-yl)phenyl)(4-(5-methyloxazolo[4,5-b]pyridin-2-yl)piperazin-1-yl)methanone]
21 | 24 | Cc1ccc2oc(N3CCN(C(=O)c4ccc(N5CC(OC(C)C(F)(F)F)C5)c(F)c4)CC3)nc2n1 (stereo not shown) [Example 210, (3-fluoro-4-(3-((1,1,1-trifluoropropan-2-yl)oxy)azetidin-1-yl)phenyl)(4-(5-methyloxazolo[4,5-b]pyridin-2-yl)piperazin-1-yl)methanone]
22 | 16 | Cc1ccc2oc(N3CCN(C(=O)c4ccc(N5CC(OC(C)C(F)(F)F)C5)cc4F)CC3)nc2n1 (stereo not shown) [Example 207, (2-fluoro-4-(3-((1,1,1-trifluoropropan-2-yl)oxy)azetidin-1-yl)phenyl)(4-(5-methyloxazolo[4,5-b]pyridin-2-yl)piperazin-1-yl)methanone]
